A word on the pIC50: it is −log10 of the IC50, conventionally taken in molar units. Low readings indicate a high IC50, high ones a low IC50.

pIC50: −log10 of the molar value. “Also recorded” adds a separate entry of the source.

The values below come from patent US20230073777A1, “CYCLIC-AMP RESPONSE ELEMENT BINDING PROTEIN (CBP) AND/OR ADENOVIRAL E1A BINDING PROTEIN OF 300 KDA (P300) DEGRADATION COMPOUNDS AND METHODS OF USE” (CULLGEN (SHANGHAI), INC., priority 2019, published 2023).

Holding throughout (type): cell-based
One experiment has as its system L-363. The experiment in a line: Cell viability assay, L-363. The note with it: Homo sapiens, L-363, Multiple myeloma. The protocol:
(§1) Cells were seeded at a density of 5000 cells per well in 96-well assay plates and treated with test compounds following a 12-point 3-fold serial dilution. Three days later, cell viability was determined using the CellTiter-Glo assay kit according to the manufacturer's instructions. The dose-response curves were determined and IC50 values were calculated using the GraphPad Prism software following a nonlinear regression (least squares fit) method.
(§2) The IC50 value of each compound was determined as described in FIG. 4 and calculated using the GraphPad Prism 5.0 software.

Another experiment concerns AMO-1. In words: Cell viability assay, AMO-1. Particulars: Homo sapiens, AMO1, AMO-1, Multiple Myeloma. The protocol:
as §1, §2

The test system of another experiment is P300/CBP. The experiment in a line: Immunoblotting of P300/CBP protein levels in LNCaP or 22RV1 cells. Particulars: LNCaP cells, 10 nM single dose (FIG. 8). The method, then: Specific exemplary bivalent compounds were characterized in LNCaP or 22RV1 cells. LNCaP or 22RV1 cells that express CBP/P300 proteins were treated with GNE-781 or the bivalent compounds disclosed herein (P-001 to P-174) for indicated hours. Cells were collected, lysed and subject to immunoblotting using an antibody specific to P300 or CBP proteins. Tubulin or vinculin was included as the loading control. DMSO was used as the negative control.
Cultured cells or tissue chunks were washed with cold PBS once and lysed in cold RIPA buffer supplemented with protease inhibitors and phosphatase inhibitors (Beyotime Biotechnology). The solutions were then incubated at 4° C. for 30 minutes with gentle agitation to fully lyse cells. Cell lysates were centrifuged at 13,000 rpm for 10 minutes at 4° C. and pellets were discarded. Total protein concentrations in the lysates were determined by BCA assays (Beyotime Biotechnology). Cell lysates were mixed with Laemmli loading buffer to 1× and heated at 99° C. for 5 min. Proteins were resolved on SDS-PAGE and visualized by chemiluminescence. Images were taken by a ChemiDoc MP Imaging system (Bio-Rad). Protein bands were quantitated using the accompanied software provided by Bio-Rad.
A general note: A western blot detects proteins with antibodies after separation by electrophoresis.

For the next experiment, the system named is Kasumi-1. In words: Cell viability assay, Kasumi-1. Particulars: Homo sapiens, Kasumi-1, Acute myeloid leukemia. The protocol:
as §1, §2

A further experiment deals with NCI-H520. The experiment in a line: Cell viability assay, NCI-H520. Particulars: Homo sapiens, NCI-H520, Non-small cell lung cancer. The protocol: as §1, §2
The next experiment has as its system NOMO-1. In words: Cell viability assay, NOMO-1. Particulars: Homo sapiens, NOMO-1, Acute monocytic leukemia. The method, then: as §1, §2
In a further experiment the test system is LNCaP cells. The experiment in a line: LNCaP cell viability assay (CellTiter-Glo). Particulars: Homo sapiens. In outline: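 Three-day treatment of LNCaP cells (5000 per well) across a 12-point, 3-fold dilution series starting at 10 μM. ATP luminescence (CellTiter-Glo) relative to untreated controls gave dose-response curves fitted nonlinearly for IC50.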
In general terms: ATP-based viability assays read luminescence as a measure of living cells.

The test system of a further experiment is MCF-7. In words: Cell viability assay, MCF-7. The note with it: Homo sapiens, MCF7, MCF-7, breast carcinoma. The method, then:
as §1, §2

The next experiment deals with NCI-H1703. The experiment in a line: Cell viability assay, NCI-H1703. The note with it: Homo sapiens, NCI-H1703, Non-small cell lung cancer. The protocol: as §1, §2
The mark [1] stands for this setting: 72 h, LNCaP prostate cancer cell viability inhibition, 3 days, CellTiter-Glo (Table 2).
[2] abbreviates: cell viability, LNCaP clone FGC, Prostate carcinoma (Table 4).

As to `CNC(=O)N1CCc2c(c(N3CCCc4cc(-c5cnn(C)c5)c(C(F)F)cc43)nn2C2CCN(C(=O)CCCCCNc3cccc4c3C(=O)N(C3CCC(=O)NC3=O)C4=O)CC2)C1` (stereo not drawn) [P-034, 3-(7-(difluoromethyl)-6-(1-methyl-1H-pyrazol-4-yl)-3,4-dihydroquinolin-1(2H)-yl)-1-(1-(6-((2-(2,6-dioxopiperidin-3-yl)-1,3-dioxoisoindolin-4-yl)amino)hexanoyl)piperidin-4-yl)-N-methyl-1,4,6,7-tetrahydro-5H-pyrazolo[4,3-c]pyridine-5-carboxamide], the pIC50 is 9.40 with L-363; 6.85 in the experiment with AMO-1; 5.94 in the experiment on Kasumi-1; 8.70 with NCI-H520; 9.10 in the experiment on NOMO-1; 9.40 in the experiment on LNCaP cells (setting [1]). In addition, the pIC50 was 9.22 in the experiment on LNCaP cells (setting [2]), 7.18 in the experiment with MCF-7 and 8.54 in the experiment on NCI-H1703. Further, in the experiment on P300/CBP, the “degradation of P300/CBP in combination with pomalidomide, MG-132, Bortezomib or MLN4924” value is on record as “compromised; also recorded: neutralized”.
As to `CNC(=O)N1CCc2c(c(N3CCCc4cc(-c5cnn(C)c5)c(C(F)F)cc43)nn2C2CCN(C(=O)CCCCCCCNc3ccc4c(c3)C(=O)N(C3CCC(=O)NC3=O)C4=O)CC2)C1` (stereo not drawn) [P-007, 3-(7-(difluoromethyl)-6-(1-methyl-1H-pyrazol-4-yl)-3,4-dihydroquinolin-1(2H)-yl)-1-(1-(8-((2-(2,6-dioxopiperidin-3-yl)-1,3-dioxoisoindolin-5-yl)amino)octanoyl)piperidin-4-yl)-N-methyl-1,4,6,7-tetrahydro-5H-pyrazolo[4,3-c]pyridine-5-carboxamide], the negative-log IC50 (pIC50) with L-363 is 8.52; in the experiment on AMO-1, 7.41; with Kasumi-1, 7.06; in the experiment on NCI-H520, 8.55; in the experiment with LNCaP cells (setting [1]), 8.92; in the experiment on LNCaP cells (setting [2]), 8.89. In the experiment on MCF-7, this compound had a pIC50 of 8.66. In the experiment on P300/CBP, the “degradation of P300/CBP in combination with pomalidomide, MG-132, Bortezomib or MLN4924” value is given as “compromised; also recorded: neutralized”.
